Reference: patent publication US8765786B2, “1-substituted indazole derivative” (Dainippon Sumitomo Pharma Co., Ltd., priority 2012, dated 2014)

molecular target: T1, human α7 nAChR (Homo sapiens, UniProt P36544); assay: Evaluation of PAM activity with human α7 nACh receptor stably expressing cells (aequorin luminescence, FDSS7000); assay type: cell-based; details: test compound 10 μmol/L; ACh added at EC20; ratio of RLU (Max-Min) of test wells to control wells
T1 construct: expressed in transfected cells; host or cells: GH4C1 cells derived from rat pituitary (ATCC CCL-82.2)
T1 sequence (P36544 23-502): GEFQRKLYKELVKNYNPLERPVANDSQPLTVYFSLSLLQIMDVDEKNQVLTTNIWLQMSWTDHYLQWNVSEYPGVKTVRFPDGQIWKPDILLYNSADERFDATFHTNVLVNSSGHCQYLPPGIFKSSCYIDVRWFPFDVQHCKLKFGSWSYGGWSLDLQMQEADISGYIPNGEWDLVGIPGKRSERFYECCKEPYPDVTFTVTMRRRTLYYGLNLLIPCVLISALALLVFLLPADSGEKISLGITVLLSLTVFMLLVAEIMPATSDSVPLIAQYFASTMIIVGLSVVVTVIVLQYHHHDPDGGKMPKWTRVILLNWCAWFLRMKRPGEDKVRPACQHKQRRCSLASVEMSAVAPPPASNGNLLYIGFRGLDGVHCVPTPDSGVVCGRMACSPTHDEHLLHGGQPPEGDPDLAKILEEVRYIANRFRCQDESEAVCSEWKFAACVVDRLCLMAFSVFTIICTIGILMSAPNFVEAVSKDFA
Excerpt: Human α7 nAChR stably expressing cells were generated and cultured. In detail, GH4C1 cells derived from rat pituitary (cat#CCL-82.2, ATCC, USA) were used as a host cell. PcDNA3.1Zeo vector containing a nucleotide sequence encoding a protein GenBank BAC81731 and pcDNA3.1 vector containing human α7 nAChR gene (cat#V790-20, invitrogen, Carlsbad, Calif., USA) were transfected to the cells to give aequorins and human α7 nAChR stably expressing cells respectively. The aequorins and human α7 nAChR stably expressing cells were screened with Zeocin (cat#R25001, invitrogen, Carlsbad, Calif., USA) and Geneticin (cat #10131-027, invitrogen, Carlsbad, Calif., USA) respectively.
The cells were cultured in F-10 Nutrient Mixture (Ham) medium (cat #11550-043, invitrogen, Carlsbad, Calif., USA) containing 2.5% fetal bovine serum (cat #2917354, ICN Biomedicals, Inc, USA), 15% inactivated horse serum (cat #26050-088, invitrogen, Carlsbad, Calif., USA), 1 μg/mL Geneticin, and 5 μg/mL Puromycin (cat #14861-84, invitrogen, Carlsbad, Calif., USA), in a Collagen Type 1-coated dish (cat #4030-010, iwaki, Tokyo, Japan). During the culture, the medium was replaced with fresh medium in every 2 to 3 days, and the cells were treated with TrypLE Express (cat #45604-021, invitrogen, Carlsbad, Calif., USA) to collect them in every 7 days. Thus, the cells were subcultured.
7 Days after subculturing, the cells were treated with TrypLE Express to collect them when they were about 80% confluent. The cells were suspended in a reaction medium containing Hanks (cat #14065-056, invitrogen, Carlsbad, Calif., USA)/20 mmol/L Hepes (cat #15630-080, invitrogen, Carlsbad, Calif., USA), Buffer (pH 7.4), F-10 Nutrient Mixture (Ham), and 0.1 mg/mL Geneticin, and the suspension was seeded in a 384-well plate (cat #781090, Greiner, Germany) at 20000 cells/25 μL per well.
On the next day after seeding, Viviren (cat#E649X, Promega, Madison, Wis., USA) was added to the medium so that the final concentration could be 4 μmol/L (15 μL/well). The plates were centrifuged and then placed in the dark for 4 hours at room temperature.
Each of the test compounds was dissolved in DMSO to prepare each test sample at a concentration of 1000-fold the final concentration. To the solution was added Hanks/20 mM HEPES/0.2% BSA (cat#A3803, Sigma, St. Louis, Mo., USA), and the concentration was adjusted to 6-fold the final concentration.
FDSS7000 (Hamamatsu Photonics) was used to detect the luminescence signal evoked by α7 nAChR stimulation. The cells and a luminescent substrate were put on a plate, and the test sample was added thereto. […] After the addition of ACh, the luminescence signal (the central wavelength: 465 nm) was measured for 138 seconds to calculate RLU (Max-Min). The ratio of the RLU (Max-Min) of the test-compound-containing wells to that of the control wells was defined as PAM activity.

Row | α7PAM (%) @ 10 μmol/L [%] | Compound
1 | 1445 | CCc1ccc2c(cnn2[C@H]2CC[C@@H](NC(=O)C3CCCC3)CC2)c1 [Example 123]
2 | 1230 | CCc1ccc2c(cnn2[C@H]2CC[C@@H](NC(=O)[C@H]3CC[C@@H](OC)CC3)CC2)c1 [Example 124]
3 | 806 | CCc1ccc2c(cnn2[C@H]2CC[C@@H](C(=O)NC3CCCCC3)CC2)c1 [Example 127]
4 | 429 | CCc1ccc2c(cnn2[C@H]2CC[C@@H](C(=O)NC3CCCC3)CC2)c1 [Example 128]
5 | 325 | CCc1ccc2c(cnn2[C@H]2CC[C@@H](C(=O)NC3CCOCC3)CC2)c1 [Example 129]
6 | 252 | CCc1ccc2c(cnn2[C@H]2CC[C@@H](C(=O)NC3CCC(OC)CC3)CC2)c1 (some centres unmarked) [Example 130]
7 | 361 | CCOc1ccc2c(cnn2C2CCN(C(=O)c3ccc(C(F)(F)F)cn3)CC2)c1 [Example 132]
8 | 568 | Cc1ccc2c(cnn2C2CCN(C(=O)C3CCC(F)(F)CC3)CC2)c1 [Example 133]
9 | 237 | O=C(C1CCC(F)(F)CC1)N1CCC(n2ncc3cc(F)ccc32)CC1 [Example 134]
10 | 328 | O=C(C1CCC(F)(F)CC1)N1CCC(n2ncc3ccccc32)CC1 [Example 137]
11 | 642 | Cc1ccc2c(cnn2C2CCN(C(=O)C3CCC(F)(F)CC3)CC2)c1 [Example 138]
12 | 1018 | CCc1cccc2c1cnn2C1CCN(C(=O)C2CCC(F)(F)CC2)CC1 [Example 139]
13 | 265 | O=C(C1CCOCC1)N1CCC(n2ncc3cc(C4CC4)ccc32)CC1 [Example 140]
14 | 448 | COC1CCC(C(=O)N2CCC(n3ncc4cc(C5CC5)ccc43)CC2)CC1 (centres unmarked) [Example 141]
15 | 181 | COc1nn(C2CCN(C(=O)N[C@H]3CC[C@H](OC)CC3)CC2)c2ccc(C)cc12 [Example 147]
16 | 1053 | CCc1ccc2c(c1)c(OC)nn2C1CCN(C(=O)NC2CCC(F)(F)CC2)CC1 [Example 149]
17 | 643 | CCc1ccc2c(c1)c(OC)nn2C1CCN(C(=O)NC2CCOCC2)CC1 [Example 150]
18 | 746 | CCc1ccc2c(c1)c(OC)nn2C1CCN(C(=O)NC2CCCCC2)CC1 [Example 151]
19 | 386 | CCc1ccc2c(c1)c(OC(C)C)nn2C1CCN(C(=O)NC2CCCCC2)CC1 [Example 153]
20 | 811 | Cc1ccc2c(cnn2C2CCN(C(=O)N[C@H]3CC[C@H](OC(F)F)CC3)CC2)c1 [Example 154]
21 | 210 | CO[C@H]1CC[C@H](NC(=O)N2CCC(n3ncc4cc(-c5ccc(F)cc5)ccc43)CC2)CC1 [Example 155]
22 | 358 | COc1ccc(-c2ccc3c(cnn3C3CCN(C(=O)NC4CCC(F)(F)CC4)CC3)c2)cc1 [Example 156]
23 | 366 | CCc1ccc2c(c1)c(COC)nn2C1CCN(C(=O)NC2CCC(F)(F)CC2)CC1 [Example 157]
24 | 292 | CCc1cccc2c1cnn2C1CCN(C(=O)N[C@H]2CC[C@@H](OC)CC2)CC1 [Example 158]
25 | 187 | CCc1cccc2c1cnn2C1CCN(C(=O)N[C@H]2CC[C@H](OC(F)F)CC2)CC1 [Example 159]

Row | α7PAM (%) @ 10 μmol/L [%] | Compound
26 | 207 | CO[C@H]1CC[C@@H](NC(=O)N2CCC(n3ncc4c(C5CC5)cccc43)CC2)CC1 [Example 160]
27 | 567 | O=C(NC1CCC(F)(F)CC1)N1CCC(n2ncc3c(C4CC4)cccc32)CC1 [Example 161]
28 | 1874 | Cc1ccc2c(cnn2C2CCN(C(=O)N[C@H]3CC[C@H](OCC4CC4)CC3)CC2)c1 [Example 162]
29 | 979 | O=C(NC1CCC(F)(F)CC1)N1CCC(n2ncc3cc(C(F)(F)F)ccc32)CC1 [Example 164]
30 | 442 | COCc1cccc2c1cnn2C1CCN(C(=O)NC2CCCCC2)CC1 [Example 165]
31 | 711 | COCc1cccc2c1cnn2C1CCN(C(=O)NC2CCC(F)(F)CC2)CC1 [Example 166]
32 | 434 | CCOCc1cccc2c1cnn2C1CCN(C(=O)NC2CCCCC2)CC1 [Example 167]
33 | 359 | O=C(NC1CCC(F)(F)CC1)N1CCC(n2ncc3c(C(F)(F)F)cccc32)CC1 [Example 169]
34 | 1382 | O=C(NC1CCCC1)N1CCC(n2ncc3cc(C4CC4)ccc32)CC1 [Example 171]
35 | 541 | CC(C)(C)NC(=O)N1CCC(n2ncc3cc(C4CC4)ccc32)CC1 [Example 172]
36 | 187 | O=C(NC1CC1)N1CCC(n2ncc3cc(C4CC4)ccc32)CC1 [Example 176]
37 | 712 | O=C(NC1CCCOC1)N1CCC(n2ncc3cc(C4CC4)ccc32)CC1 (centres unmarked) [Example 177]
38 | 274 | CC(C)Oc1cccc2c1cnn2C1CCN(C(=O)NC2CCCCC2)CC1 [Example 180]
39 | 538 | COc1cccc2c1cnn2C1CCN(C(=O)NC2CCCCC2)CC1 [Example 181]
40 | 742 | COc1cccc2c1cnn2C1CCN(C(=O)NC2CCC(F)(F)CC2)CC1 [Example 182]
41 | 342 | CC(C)Oc1cccc2c1cnn2C1CCN(C(=O)NC2CCC(F)(F)CC2)CC1 [Example 183]
42 | 200 | CCOc1cccc2c1cnn2C1CCN(C(=O)N[C@H]2CC[C@@H](OC)CC2)CC1 [Example 184]
43 | 494 | O=C(NC1CCC1)N1CCC(n2ncc3cc(C4CC4)ccc32)CC1 [Example 185]
44 | 220 | O=C(Nc1ccc(C(F)(F)F)nc1)N1CCC(n2ncc3cc(C4CC4)ccc32)CC1 [Example 187]
45 | 257 | CO[C@H]1CC[C@@H](NC(=O)N2CCC(n3ncc4cc(C5CC5)ccc43)CC2)CC1 [Example 189]
46 | 256 | O=C(NC1CCC(F)(F)CC1)N1CCC(n2ncc3c(F)cccc32)CC1 [Example 190]
47 | 493 | CCOc1cccc2c1cnn2C1CCN(C(=O)NC2CCCCC2)CC1 [Example 191]
48 | 699 | CCOc1cccc2c1cnn2C1CCN(C(=O)NC2CCC(F)(F)CC2)CC1 [Example 192]
49 | 889 | COc1ccc(CNC(=O)N2CCC(n3ncc4cc(C5CC5)ccc43)CC2)cc1 [Example 193]
50 | 278 | O=C(NCc1ccccc1)N1CCC(n2ncc3cc(C4CC4)ccc32)CC1 [Example 194]

Row | Compound | α7PAM (%) @ 10 μmol/L [%]
51 | [2H]C([2H])([2H])O[C@H]1CC[C@H](NC(=O)N2CCC(n3ncc4cc(C(F)(F)F)ccc43)CC2)CC1 [Example 178, N-{trans-4-[(^2H3)methoxy]cyclohexyl}-4-[5-(trifluoromethyl)-1H-indazol-1-yl]piperidine-1-carboxamide] | 524

same assay, conditions: test compound 10 μmol/L; ACh added at EC20; ratio of RLU (Max-Min) of test wells to control wells; read-out: α7PAM (%) @ 10 μmol/L

Row | activity at 10 µM [%] | Compound
52 | 637 | [2H]C([2H])([2H])c1ccc2c(cnn2C2CCN(C(=O)N[C@H]3CC[C@H](OC)CC3)CC2)c1 [Example 144, N-(trans-4-methoxycyclohexyl)-4-[5-(^2H3)methyl-1H-indazol-1-yl]piperidine-1-carboxamide]
53 | 804 | CCOc1c(C)ccc2c1cnn2C1CCN(C(=O)N[C@H]2CC[C@H](OC)CC2)CC1 [Example 145, 4-(4-ethoxy-5-methyl-1H-indazol-1-yl)-N-(trans-4-methoxycyclohexyl)piperidine-1-carboxamide]
